Assays:
[1] = target: T1, Adrenergic β2 (Homo sapiens, UniProt P07550); test: cell-based; parameters: off-target selectivity panel, receptor agonist or channel opener mode, pXC50; conditions: agonist mode; read-out: pXC50 (agonist) (converted)
T1 construct: gene ADRB2
Text: (§1) From the outset, GSK3011724A, an indazole sulfonamide (Fig. 1a), represented an attractive compound for early stage drug discovery based on its anti-mycobacterial potency, small size and moderate lipophilicity (Table 1). Further profiling in vitro using standard assays, such as the hERG ion channel and cytochrome P450 isoforms supported this view (Table 1). […] A description of this optimization effort along with a thorough discussion of the drug development potential and liabilities of this series will be the subject of a future publication.

[2] = target: T2, Muscarine M1 (Homo sapiens, UniProt P11229); test: cell-based; parameters: off-target selectivity panel, receptor agonist or channel opener mode, pXC50; conditions: agonist mode; read-out: pXC50 (agonist) (converted)
T2 construct: gene CHRM1
Text: as §1

[3] = target: T3, Serotonin 5HT1B (Homo sapiens, UniProt P28222); test: cell-based; parameters: off-target selectivity panel, receptor agonist or channel opener mode, pXC50; conditions: agonist mode; read-out: pXC50 (agonist) (converted)
T3 construct: gene HTR1B
Text: as §1

[4] = target: T4, α1 nicotinic AChR (Homo sapiens, UniProt P02708); test: cell-based; parameters: off-target selectivity panel, receptor agonist or channel opener mode, pXC50; conditions: opener mode; read-out: pXC50 (opener) (converted)
T4 construct: gene CHRNA1
Text: as §1

[5] = target: T5, Dopamine D2 (Homo sapiens, UniProt P14416); test: cell-based; parameters: off-target selectivity panel, receptor agonist or channel opener mode, pXC50; conditions: agonist mode; read-out: pXC50 (agonist) (converted)
T5 construct: gene DRD2
Text: as §1

[6] = target: T6, Serotonin 5HT2A (Homo sapiens, UniProt P28223); test: cell-based; parameters: off-target selectivity panel, receptor agonist or channel opener mode, pXC50; conditions: agonist mode; read-out: pXC50 (agonist) (converted)
T6 construct: gene HTR2A
Text: as §1

[7] = target: T7, Serotonin 5HT3 (Homo sapiens, UniProt P46098); test: cell-based; parameters: off-target selectivity panel, receptor agonist or channel opener mode, pXC50; conditions: opener mode; read-out: pXC50 (opener) (converted)
T7 construct: gene HTR3A
Text: as §1

[8] = target: T8, Adrenergic α2C (Homo sapiens, UniProt P18825); test: cell-based; parameters: off-target selectivity panel, receptor agonist or channel opener mode, pXC50; conditions: agonist mode; read-out: pXC50 (agonist) (converted)
T8 construct: gene ADRA2C
Text: as §1

[9] = target: T9, Opioid κ (Homo sapiens, UniProt P41145); test: cell-based; parameters: off-target selectivity panel, receptor agonist or channel opener mode, pXC50; conditions: agonist mode; read-out: pXC50 (agonist) (converted)
T9 construct: gene OPRK1
Text: as §1

[10] = target: T10, Cannabinoid CB2 (Homo sapiens, UniProt P34972); test: cell-based; parameters: off-target selectivity panel, receptor agonist or channel opener mode, pXC50; conditions: agonist mode; read-out: pXC50 (agonist) (converted)
T10 construct: gene CNR2
Text: as §1

[11] = target: T11, Adenosine A2a (Homo sapiens, UniProt P29274); test: cell-based; parameters: off-target selectivity panel, receptor agonist or channel opener mode, pXC50; conditions: agonist mode; read-out: pXC50 (agonist) (converted)
T11 construct: gene ADORA2A
Text: as §1

[12] = target: AhR (Homo sapiens, UniProt P35869); test: cell-based; parameters: off-target selectivity panel, receptor agonist or channel opener mode, pXC50; conditions: agonist mode; read-out: pXC50 (agonist) (converted)
Text: as §1

[13] = target: T12, Muscarine M2 (Homo sapiens, UniProt P08172); test: cell-based; parameters: off-target selectivity panel, receptor agonist or channel opener mode, pXC50; conditions: agonist mode; read-out: pXC50 (agonist) (converted)
T12 construct: gene CHRM2
Text: as §1

[14] = target: T13, Opioid μ (Homo sapiens, UniProt P35372); test: cell-based; parameters: off-target selectivity panel, receptor agonist or channel opener mode, pXC50; conditions: agonist mode; read-out: pXC50 (agonist) (converted)
T13 construct: gene OPRM1
Text: as §1

[15] = target: T14, Serotonin 5HT2C (Homo sapiens, UniProt P28335); test: cell-based; parameters: off-target selectivity panel, receptor agonist or channel opener mode, pXC50; conditions: agonist mode; read-out: pXC50 (agonist) (converted)
T14 construct: gene HTR2C
Text: as §1

[16] = target: T15, PXR (Homo sapiens, UniProt O75469); test: cell-based; parameters: off-target selectivity panel, receptor agonist or channel opener mode, pXC50; conditions: agonist mode; read-out: pXC50 (agonist) (converted)
T15 construct: gene NR1I2
Text: as §1

[17] = target: T16, KasA (Mycobacterium tuberculosis, UniProt P9WQD9); test: […] Å co-crystal structure; […]; also chemoproteomic Kd app […] and […] enzyme inhibition at […]; type: binding
T16 construct: recombinant KasA from pET28a-kasA

[18] = target: NQO2 (Homo sapiens, UniProt P16083); test: chemoproteomic competition binding in mixed HEK293/K562/placenta extract, LC-MS/MS; type: biochemical
[19] = target: Pks10 (Mycobacterium tuberculosis, UniProt Q7VEV2); type: biochemical
[20] = target: T17, Vasopressin V1a (Homo sapiens, UniProt P37288); test: cell-based; parameters: off-target selectivity panel, receptor antagonist, channel blocker or transporter inhibition mode, pXC50; conditions: antagonist mode; read-out: pXC50 (antagonist) (converted)
T17 construct: gene AVPR1A
Text: as §1

[21] = target: T18, hERG (Homo sapiens, UniProt Q12809); test: cell-based; parameters: off-target selectivity panel, receptor antagonist, channel blocker or transporter inhibition mode, pXC50; conditions: read-out: pXC50 (blocker / transporter inhibition) (converted)
T18 construct: gene KCNH2
Text: as §1

[22] = target: T1, Adrenergic β2; test: cell-based; parameters: off-target selectivity panel, receptor antagonist, channel blocker or transporter inhibition mode, pXC50; conditions: antagonist mode; read-out: pXC50 (antagonist) (converted)
Text: as §1

[23] = target: T19, OATP1B1 (Homo sapiens, UniProt Q9Y6L6); test: cell-based; parameters: off-target selectivity panel, receptor antagonist, channel blocker or transporter inhibition mode, pXC50; conditions: read-out: pXC50 (blocker / transporter inhibition) (converted)
T19 construct: gene SLCO1B1
Text: as §1

[24] = target: T2, Muscarine M1; test: cell-based; parameters: off-target selectivity panel, receptor antagonist, channel blocker or transporter inhibition mode, pXC50; conditions: antagonist mode; read-out: pXC50 (antagonist) (converted)
Text: as §1

[25] = target: T3, Serotonin 5HT1B; test: cell-based; parameters: off-target selectivity panel, receptor antagonist, channel blocker or transporter inhibition mode, pXC50; conditions: antagonist mode; read-out: pXC50 (antagonist) (converted)
Text: as §1

[26] = target: T20, NaV1.5 (Homo sapiens, UniProt Q14524); test: cell-based; parameters: off-target selectivity panel, receptor antagonist, channel blocker or transporter inhibition mode, pXC50; conditions: read-out: pXC50 (blocker / transporter inhibition) (converted)
T20 construct: gene SCN5A
Text: as §1

[27] = target: T4, α1 nicotinic AChR; test: cell-based; parameters: off-target selectivity panel, receptor antagonist, channel blocker or transporter inhibition mode, pXC50; conditions: read-out: pXC50 (blocker / transporter inhibition) (converted)
Text: as §1

[28] = target: T21, Adrenergic α1B (Homo sapiens, UniProt P35368); test: cell-based; parameters: off-target selectivity panel, receptor antagonist, channel blocker or transporter inhibition mode, pXC50; conditions: antagonist mode; read-out: pXC50 (antagonist) (converted)
T21 construct: gene ADRA1B
Text: as §1

[29] = target: T22, Histamine H1 (Homo sapiens, UniProt P35367); test: cell-based; parameters: off-target selectivity panel, receptor antagonist, channel blocker or transporter inhibition mode, pXC50; conditions: antagonist mode; read-out: pXC50 (antagonist) (converted)
T22 construct: gene HRH1
Text: as §1

[30] = target: T5, Dopamine D2; test: cell-based; parameters: off-target selectivity panel, receptor antagonist, channel blocker or transporter inhibition mode, pXC50; conditions: antagonist mode; read-out: pXC50 (antagonist) (converted)
Text: as §1

[31] = target: T6, Serotonin 5HT2A; test: cell-based; parameters: off-target selectivity panel, receptor antagonist, channel blocker or transporter inhibition mode, pXC50; conditions: antagonist mode; read-out: pXC50 (antagonist) (converted)
Text: as §1

[32] = target: T7, Serotonin 5HT3; test: cell-based; parameters: off-target selectivity panel, receptor antagonist, channel blocker or transporter inhibition mode, pXC50; conditions: read-out: pXC50 (blocker / transporter inhibition) (converted)
Text: as §1

[33] = target: T23, L-type Ca channel (CaV1.2) (Homo sapiens, UniProt Q13936); test: cell-based; parameters: off-target selectivity panel, receptor antagonist, channel blocker or transporter inhibition mode, pXC50; conditions: read-out: pXC50 (blocker / transporter inhibition) (converted)
T23 construct: gene CACNA1C
Text: as §1

[34] = target: T24, Kv1.5 (Homo sapiens, UniProt P22460); test: cell-based; parameters: off-target selectivity panel, receptor antagonist, channel blocker or transporter inhibition mode, pXC50; conditions: read-out: pXC50 (blocker / transporter inhibition) (converted)
T24 construct: gene KCNA5
Text: as §1

[35] = target: T25, Neurokinin NK1 (Homo sapiens, UniProt P25103); test: cell-based; parameters: off-target selectivity panel, receptor antagonist, channel blocker or transporter inhibition mode, pXC50; conditions: antagonist mode; read-out: pXC50 (antagonist) (converted)
T25 construct: gene TACR1
Text: as §1

[36] = target: T26, Dopamine D1 (Homo sapiens, UniProt P21728); test: cell-based; parameters: off-target selectivity panel, receptor antagonist, channel blocker or transporter inhibition mode, pXC50; conditions: antagonist mode; read-out: pXC50 (antagonist) (converted)
T26 construct: gene DRD1
Text: as §1

[37] = target: T12, Muscarine M2; test: cell-based; parameters: off-target selectivity panel, receptor antagonist, channel blocker or transporter inhibition mode, pXC50; conditions: antagonist mode; read-out: pXC50 (antagonist) (converted)
Text: as §1

[38] = target: T27, NMDA Channel (NR2B) (Homo sapiens, UniProt Q13224); test: cell-based; parameters: off-target selectivity panel, receptor antagonist, channel blocker or transporter inhibition mode, pXC50; conditions: read-out: pXC50 (blocker / transporter inhibition) (converted)
T27 construct: gene GRIN2B
Text: as §1

[39] = target: T14, Serotonin 5HT2C; test: cell-based; parameters: off-target selectivity panel, receptor antagonist, channel blocker or transporter inhibition mode, pXC50; conditions: antagonist mode; read-out: pXC50 (antagonist) (converted)
Text: as §1

[40] = target: T28, KCNQ1/minK (Homo sapiens, UniProt P15382+P51787); test: cell-based; parameters: off-target selectivity panel, receptor antagonist, channel blocker or transporter inhibition mode, pXC50; conditions: read-out: pXC50 (blocker / transporter inhibition) (converted)
T28 construct: gene KCNE1
Text: as §1

[41] = target: Pks11; type: biochemical, Mycobacterium bovis BCG
[42] = target: T29, PI3Kγ (Homo sapiens, UniProt P48736); test: biochemical; parameters: off-target selectivity panel, enzyme and kinase inhibition, pXC50; conditions: read-out: pXC50 (enzyme inhibition) (converted)
T29 construct: gene PIK3CG
Text: as §1

[43] = target: T30, COX-2 (Homo sapiens, UniProt P35354); test: biochemical; parameters: off-target selectivity panel, enzyme and kinase inhibition, pXC50; conditions: read-out: pXC50 (enzyme inhibition) (converted)
T30 construct: gene PTGS2
Text: as §1

[44] = target: PDE3A (Homo sapiens, UniProt Q14432); test: biochemical; parameters: off-target selectivity panel, enzyme and kinase inhibition, pXC50; conditions: read-out: pXC50 (enzyme inhibition) (converted)
Text: as §1

[45] = target: T31, Acetylcholinesterase (Homo sapiens, UniProt P22303); test: biochemical; parameters: off-target selectivity panel, enzyme and kinase inhibition, pXC50; conditions: read-out: pXC50 (enzyme inhibition) (converted)
T31 construct: gene ACHE
Text: as §1

[46] = target: LCK (Homo sapiens, UniProt P06239); test: biochemical; parameters: off-target selectivity panel, enzyme and kinase inhibition, pXC50; conditions: read-out: pXC50 (enzyme inhibition) (converted)
Text: as §1

T6 sequence (P28223 whole entry, looked up): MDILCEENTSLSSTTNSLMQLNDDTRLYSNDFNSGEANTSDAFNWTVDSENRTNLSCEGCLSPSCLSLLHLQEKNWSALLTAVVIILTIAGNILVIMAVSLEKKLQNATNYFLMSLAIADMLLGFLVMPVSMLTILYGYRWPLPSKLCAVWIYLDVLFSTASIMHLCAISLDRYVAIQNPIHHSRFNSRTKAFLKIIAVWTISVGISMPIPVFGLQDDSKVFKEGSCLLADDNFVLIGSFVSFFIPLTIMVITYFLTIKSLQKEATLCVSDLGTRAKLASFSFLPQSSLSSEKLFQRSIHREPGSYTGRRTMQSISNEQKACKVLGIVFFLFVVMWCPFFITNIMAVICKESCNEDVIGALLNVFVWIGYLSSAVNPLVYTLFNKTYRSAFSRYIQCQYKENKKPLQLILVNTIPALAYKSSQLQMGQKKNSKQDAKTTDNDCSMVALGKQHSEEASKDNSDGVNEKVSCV
T12 sequence (P08172 whole entry): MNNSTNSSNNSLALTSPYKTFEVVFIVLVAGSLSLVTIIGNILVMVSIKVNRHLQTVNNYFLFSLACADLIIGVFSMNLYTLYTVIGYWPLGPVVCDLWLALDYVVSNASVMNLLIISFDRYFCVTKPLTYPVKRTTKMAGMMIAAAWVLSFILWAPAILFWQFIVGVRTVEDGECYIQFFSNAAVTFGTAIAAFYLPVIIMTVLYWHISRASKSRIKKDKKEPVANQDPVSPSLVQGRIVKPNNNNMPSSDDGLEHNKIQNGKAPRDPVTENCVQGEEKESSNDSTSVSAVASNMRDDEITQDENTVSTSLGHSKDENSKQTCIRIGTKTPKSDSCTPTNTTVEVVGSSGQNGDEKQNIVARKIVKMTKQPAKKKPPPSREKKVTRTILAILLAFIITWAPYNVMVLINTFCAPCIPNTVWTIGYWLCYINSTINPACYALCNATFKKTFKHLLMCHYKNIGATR
T3 sequence (P28222 whole entry): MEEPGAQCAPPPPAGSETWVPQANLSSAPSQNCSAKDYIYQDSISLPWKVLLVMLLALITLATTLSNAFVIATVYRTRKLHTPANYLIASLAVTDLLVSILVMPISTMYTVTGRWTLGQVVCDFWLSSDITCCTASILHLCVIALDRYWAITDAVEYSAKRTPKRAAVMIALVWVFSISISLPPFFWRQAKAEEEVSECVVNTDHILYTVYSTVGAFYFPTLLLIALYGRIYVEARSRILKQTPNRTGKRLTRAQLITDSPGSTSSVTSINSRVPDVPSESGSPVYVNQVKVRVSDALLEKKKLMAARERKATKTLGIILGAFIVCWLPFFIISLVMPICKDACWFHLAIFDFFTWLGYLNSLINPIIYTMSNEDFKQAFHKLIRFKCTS
T14 sequence (P28335 whole entry): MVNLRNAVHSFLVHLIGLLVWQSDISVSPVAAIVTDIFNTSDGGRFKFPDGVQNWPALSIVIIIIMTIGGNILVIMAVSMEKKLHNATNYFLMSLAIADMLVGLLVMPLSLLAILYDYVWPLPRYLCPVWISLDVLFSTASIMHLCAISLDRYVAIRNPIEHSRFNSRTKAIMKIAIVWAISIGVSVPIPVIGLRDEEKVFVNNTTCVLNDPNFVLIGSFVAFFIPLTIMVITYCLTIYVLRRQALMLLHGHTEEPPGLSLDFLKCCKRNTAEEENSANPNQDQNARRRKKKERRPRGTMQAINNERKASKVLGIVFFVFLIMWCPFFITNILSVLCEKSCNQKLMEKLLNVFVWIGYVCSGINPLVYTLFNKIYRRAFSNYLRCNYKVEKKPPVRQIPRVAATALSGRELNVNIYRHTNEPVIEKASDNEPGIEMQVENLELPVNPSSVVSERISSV
T2 sequence (P11229 whole entry): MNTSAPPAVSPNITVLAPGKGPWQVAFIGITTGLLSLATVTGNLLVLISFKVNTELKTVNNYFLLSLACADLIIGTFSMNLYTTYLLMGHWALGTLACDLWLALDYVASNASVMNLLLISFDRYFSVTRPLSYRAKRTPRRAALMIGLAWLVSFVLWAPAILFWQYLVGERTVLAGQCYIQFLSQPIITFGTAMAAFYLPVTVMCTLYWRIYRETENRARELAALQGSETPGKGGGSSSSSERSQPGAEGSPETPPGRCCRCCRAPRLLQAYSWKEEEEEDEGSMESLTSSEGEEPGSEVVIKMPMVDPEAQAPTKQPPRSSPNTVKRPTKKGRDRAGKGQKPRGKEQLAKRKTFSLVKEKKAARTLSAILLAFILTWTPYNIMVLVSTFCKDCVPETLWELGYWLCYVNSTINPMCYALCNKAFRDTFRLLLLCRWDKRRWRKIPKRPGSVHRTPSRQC
T1 sequence (P07550 whole entry): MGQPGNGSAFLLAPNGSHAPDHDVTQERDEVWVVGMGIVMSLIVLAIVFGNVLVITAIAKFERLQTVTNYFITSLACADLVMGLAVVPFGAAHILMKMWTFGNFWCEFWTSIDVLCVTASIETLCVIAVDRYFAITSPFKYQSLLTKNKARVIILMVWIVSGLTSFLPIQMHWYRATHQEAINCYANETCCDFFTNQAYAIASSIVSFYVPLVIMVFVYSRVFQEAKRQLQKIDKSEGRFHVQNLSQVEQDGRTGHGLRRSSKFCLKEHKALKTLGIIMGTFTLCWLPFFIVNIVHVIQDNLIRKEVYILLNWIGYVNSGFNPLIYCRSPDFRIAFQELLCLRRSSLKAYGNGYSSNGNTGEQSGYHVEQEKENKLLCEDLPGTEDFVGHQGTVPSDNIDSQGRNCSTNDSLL
T4 sequence (P02708 whole entry): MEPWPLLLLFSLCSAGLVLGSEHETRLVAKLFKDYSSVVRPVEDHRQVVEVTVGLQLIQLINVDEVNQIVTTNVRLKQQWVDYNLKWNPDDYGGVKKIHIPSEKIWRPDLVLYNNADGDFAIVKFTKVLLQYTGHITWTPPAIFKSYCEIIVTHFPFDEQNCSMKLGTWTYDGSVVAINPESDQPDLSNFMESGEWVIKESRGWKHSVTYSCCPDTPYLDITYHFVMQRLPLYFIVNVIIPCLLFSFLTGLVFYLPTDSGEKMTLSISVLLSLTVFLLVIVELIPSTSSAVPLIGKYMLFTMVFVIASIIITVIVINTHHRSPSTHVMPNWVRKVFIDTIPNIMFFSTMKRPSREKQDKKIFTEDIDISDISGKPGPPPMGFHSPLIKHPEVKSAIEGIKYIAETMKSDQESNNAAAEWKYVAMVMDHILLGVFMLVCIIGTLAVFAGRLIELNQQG
T5 sequence (P14416 whole entry): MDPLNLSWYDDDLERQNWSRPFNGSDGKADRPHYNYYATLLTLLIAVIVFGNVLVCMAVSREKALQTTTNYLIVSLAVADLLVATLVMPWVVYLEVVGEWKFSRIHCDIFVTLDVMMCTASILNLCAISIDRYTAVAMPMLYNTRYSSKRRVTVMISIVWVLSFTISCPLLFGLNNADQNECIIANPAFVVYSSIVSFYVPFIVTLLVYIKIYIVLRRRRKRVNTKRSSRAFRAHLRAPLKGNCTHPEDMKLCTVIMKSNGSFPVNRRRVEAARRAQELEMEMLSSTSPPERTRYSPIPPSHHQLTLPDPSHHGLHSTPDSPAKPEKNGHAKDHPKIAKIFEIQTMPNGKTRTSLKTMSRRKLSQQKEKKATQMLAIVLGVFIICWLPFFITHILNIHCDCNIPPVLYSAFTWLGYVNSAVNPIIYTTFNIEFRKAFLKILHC
T7 sequence (P46098 whole entry): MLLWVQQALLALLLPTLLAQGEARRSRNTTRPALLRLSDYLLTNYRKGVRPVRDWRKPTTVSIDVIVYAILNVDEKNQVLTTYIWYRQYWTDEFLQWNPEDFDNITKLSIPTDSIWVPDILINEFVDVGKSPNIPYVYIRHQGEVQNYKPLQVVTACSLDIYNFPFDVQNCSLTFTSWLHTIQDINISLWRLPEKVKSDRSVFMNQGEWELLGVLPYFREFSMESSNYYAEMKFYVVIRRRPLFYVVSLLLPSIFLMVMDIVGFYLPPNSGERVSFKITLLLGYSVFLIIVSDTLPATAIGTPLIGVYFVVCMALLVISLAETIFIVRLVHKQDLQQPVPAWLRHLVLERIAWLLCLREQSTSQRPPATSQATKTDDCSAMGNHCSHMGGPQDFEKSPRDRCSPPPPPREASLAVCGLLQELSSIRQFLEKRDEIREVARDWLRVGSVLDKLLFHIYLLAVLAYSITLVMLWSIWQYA
T28 sequence (P51787 whole entry): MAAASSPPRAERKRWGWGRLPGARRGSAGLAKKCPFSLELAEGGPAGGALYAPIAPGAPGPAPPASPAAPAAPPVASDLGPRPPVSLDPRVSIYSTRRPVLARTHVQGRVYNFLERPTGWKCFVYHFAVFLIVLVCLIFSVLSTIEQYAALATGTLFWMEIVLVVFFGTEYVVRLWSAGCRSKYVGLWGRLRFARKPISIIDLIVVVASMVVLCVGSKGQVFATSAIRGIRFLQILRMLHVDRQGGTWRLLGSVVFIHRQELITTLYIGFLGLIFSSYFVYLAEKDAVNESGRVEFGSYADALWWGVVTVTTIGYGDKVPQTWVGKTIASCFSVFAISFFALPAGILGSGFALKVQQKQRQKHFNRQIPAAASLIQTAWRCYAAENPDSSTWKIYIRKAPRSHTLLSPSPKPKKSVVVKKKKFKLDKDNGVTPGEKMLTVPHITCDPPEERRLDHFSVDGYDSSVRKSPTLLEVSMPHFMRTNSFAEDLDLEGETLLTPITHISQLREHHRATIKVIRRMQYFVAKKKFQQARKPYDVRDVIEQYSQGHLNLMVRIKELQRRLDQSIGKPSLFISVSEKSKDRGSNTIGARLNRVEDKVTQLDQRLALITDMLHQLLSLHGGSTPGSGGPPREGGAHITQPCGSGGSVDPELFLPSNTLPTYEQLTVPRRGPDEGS

CCCCS(=O)(=O)Nc1ccc2cnn(C)c2c1 [GSK3011724A]
EC50 [1]: > 100 µM
EC50 [2]: > 50.1 µM
EC50 [3]: > 100 µM
EC50 [4]: > 50.1 µM
EC50 [5]: > 100 µM
EC50 [6]: > 25.1 µM
EC50 [7]: > 50.1 µM
EC50 [8]: > 100 µM
EC50 [9]: > 100 µM
EC50 [10]: > 100 µM
EC50 [11]: > 100 µM
EC50 [12]: > 100 µM
EC50 [13]: > 50.1 µM
EC50 [14]: > 100 µM
EC50 [15]: > 25.1 µM
EC50 [16]: > 50.1 µM
Kd [17]: 0.01 to 0.02 µM
Kd [18]: 4 to 6 µM
Kd [19]: 1.4 µM
IC50 [20]: > 50.1 µM
IC50 [21]: > 63.1 µM
IC50 [22]: > 100 µM
IC50 [23]: > 50.1 µM
IC50 [24]: > 50.1 µM
IC50 [25]: > 100 µM
IC50 [26]: > 100 µM
IC50 [27]: > 50.1 µM
IC50 [28]: > 25.1 µM
IC50 [29]: > 25.1 µM
IC50 [30]: > 100 µM
IC50 [31]: > 25.1 µM
IC50 [32]: > 50.1 µM
IC50 [33]: > 100 µM
IC50 [34]: > 50.1 µM
IC50 [35]: > 25.1 µM
IC50 [36]: > 100 µM
IC50 [37]: > 50.1 µM
IC50 [38]: > 50.1 µM
IC50 [39]: > 25.1 µM
IC50 [40]: > 25.1 µM
Kd [41]: 1.4 µM
IC50 [42]: > 31.6 µM
IC50 [43]: > 100 µM
IC50 [44]: > 100 µM
IC50 [45]: > 100 µM
IC50 [46]: > 31.6 µM

Reference: PMC5025758 (Nature Communications, 2016)
